# Experimental data reported in PMC7565698, “Catabolic Reductive Dehalogenase Substrate Complex Structures Underpin Rational Repurposing of Substrate Scope” (Microorganisms, 2020).
# What was measured:
# NpRdhA [1] = target: T1, NpRdhA (Nitratireductor pacificus, UniProt K2MB66); experiment: X-ray crystal structure, soaked crystals ([…] Å); assay type: binding; conditions: N-terminal His tag, 100 mM soak
# T1 construct: gene NA2_14372; full-length, N-terminal His6 tag (NpRdhA^N; crystals) or C-terminal His6 tag (NpRdhA^C; A419M); expressed in Bacillus megaterium; holds cobalamin and two [4Fe-4S] clusters
# T1 sequence (K2MB66 entry or part of it): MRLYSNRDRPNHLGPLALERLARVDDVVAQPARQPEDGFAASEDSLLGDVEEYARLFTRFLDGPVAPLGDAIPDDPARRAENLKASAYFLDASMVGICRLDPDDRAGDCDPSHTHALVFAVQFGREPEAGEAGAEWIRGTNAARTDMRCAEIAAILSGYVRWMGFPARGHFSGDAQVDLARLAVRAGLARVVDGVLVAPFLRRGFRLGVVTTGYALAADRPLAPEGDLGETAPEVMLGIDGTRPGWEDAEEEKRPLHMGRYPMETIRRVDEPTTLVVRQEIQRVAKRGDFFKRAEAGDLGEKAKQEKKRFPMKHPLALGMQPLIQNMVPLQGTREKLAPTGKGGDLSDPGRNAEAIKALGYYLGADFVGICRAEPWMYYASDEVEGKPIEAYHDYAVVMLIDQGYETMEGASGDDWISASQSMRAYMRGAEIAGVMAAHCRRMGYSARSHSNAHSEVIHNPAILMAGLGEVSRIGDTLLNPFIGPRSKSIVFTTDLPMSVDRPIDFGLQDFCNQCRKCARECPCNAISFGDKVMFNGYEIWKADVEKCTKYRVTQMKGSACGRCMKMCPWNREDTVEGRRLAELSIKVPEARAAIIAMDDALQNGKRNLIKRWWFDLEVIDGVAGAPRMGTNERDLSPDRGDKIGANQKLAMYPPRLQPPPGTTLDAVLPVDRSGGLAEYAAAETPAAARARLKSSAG
# NpRdhA [2] = target: T2, NpRdhA (Nitratireductor pacificus, UniProt K2MB66, A419M); experiment: HPLC of dehalogenation products; assay type: biochemical; conditions: NADPH, spinach ferredoxin, E. coli flavodoxin reductase, 30 °C, anaerobic; C-terminal His tag
# T2 construct: gene NA2_14372; full-length, N-terminal His6 tag (NpRdhA^N; crystals) or C-terminal His6 tag (NpRdhA^C; A419M); expressed in Bacillus megaterium; holds cobalamin and two [4Fe-4S] clusters
# T2 sequence (K2MB66 entry or part of it A419M): as the sequence (K2MB66 entry or part of it) above, with A419M counted along it
# NpRdhA [3] = target: T1, NpRdhA; experiment: X-band continuous wave EPR of cob(II)alamin; assay type: binding; conditions: 20 mM ligand, 100 uM protein, 30 K
Structure (SMILES),"X-ray crystal structure, soaked crystals (1.99 Å) (NpRdhA [1]; three conformations, one with Br ligating Co, one at the active site entrance)",HPLC of dehalogenation products (NpRdhA [2]),"X-ray crystal structure, soaked crystals (1.99 Å) (NpRdhA [1]; active site above cobalamin, Br at Co beta-axial position, partial photoreduction to 3-bromo-4-hydroxybenzoic acid)",X-band continuous wave EPR of cob(II)alamin (NpRdhA [3])
"O=C(O)c1ccc(O)c(Br)c1 [3-B-4-OH, 3-bromo-4-hydroxybenzoic acid]",structure of the NpRdhA^N protein in complex with 3-B-4-OH obtained through soaking,"revealed the ability to dehalogenate 35-DB-4-OH, 3-B-4-OH, 35-DC-4-OH and 3-C-4-OH",,
"O=C(O)c1cc(Br)c(O)c(Br)c1 [35-DB-4-OH, 3,5-dibromo-4-hydroxybenzoic acid]",,"revealed the ability to dehalogenate 35-DB-4-OH, 3-B-4-OH, 35-DC-4-OH and 3-C-4-OH",35-DB-4-OH is located above the cobalamin,
"O=C(O)c1cc(Cl)c(O)c(Cl)c1 [35-DC-4-OH, 3,5-dichloro-4-hydroxybenzoic acid]",,,,a distinct change in both g and hyperfine coupling values on substrate binding
